We go through 13 molecules from US20250145665A1, “MACROCYCLIC PEPTIDES USEFUL AS MODULATORS OF TNF ALPHA” (Bristol-Myers Squibb Company, priority 2023, published 2025).

Starred links: 1 amine or outer side, 2 acyl side, 3 side chain; linkers in the order of their positions; H or OH if unused. Positions of bridges follow the written chain, without caps; N, C: chain ends. Non-standard residues stand in square brackets, D forms with d. Residues, ends and D or L forms follow the SMILES beside them. *: point of attachment. Bip(4'-NHCO-C6H4-3-CH2COOH) = N[C@@H](Cc1ccc(-c2ccc(NC(=O)c3cccc(CC(=O)O)c3)cc2)cc1)C(=O)O; Bip(4'-NHCO-C6H4-4-CH2COOH) = N[C@@H](Cc1ccc(-c2ccc(NC(=O)c3ccc(CC(=O)O)cc3)cc2)cc1)C(=O)O; dArg(Nω-CH2C6H4-3-CH2Gua) = N=C(N)NCc1cccc(CNC(=N)NCCC[C@@H](N)C(=O)O)c1; Bip(4'-NH) = O=C([C@H](Cc1ccc(-c2ccc(N[*:3])cc2)cc1)N[*:1])[*:2]; dArg(ω-(3-HO-benzyl)) = N=C(NCCC[C@@H](N)C(=O)O)NCc1cccc(O)c1; Indazole3carbonyl(1-CH2COOH) = O=C(O)Cn1nc(C(=O)*)c2ccccc21; Bip(4'-COOH) = N[C@@H](Cc1ccc(-c2ccc(C(=O)O)cc2)cc1)C(=O)O; Indole3carbonyl(1-CH2COOH) = O=C(O)Cn1cc(C(=O)*)c2ccccc21; Ala(imidazol-2-yl) = N[C@@H](Cc1ncc[nH]1)C(=O)O; Ala(morpholin-4-yl) = N[C@@H](CN1CCOCC1)C(=O)O; Benzoyl(3-OCH2COOH) = O=C(O)COc1cccc(C(=O)*)c1; Bip = N[C@@H](Cc1ccc(-c2ccccc2)cc1)C(=O)O; 2Pal = N[C@@H](Cc1ccccn1)C(=O)O; Tic = O=C(O)[C@@H]1Cc2ccccc2CN1; Cha = N[C@@H](CC1CCCCC1)C(=O)O; Sar = CNCC(=O)O

As a reminder, the IC50 is the concentration that gives 50% inhibition.

For the first assay, the target named is TNFα (Homo sapiens, UniProt P01375). As to the kind of experiment: TNF-Induced HEK-Blue Assay. The format is cell-based.
Sequence of TNFα (P01375 77-233 limits assumed): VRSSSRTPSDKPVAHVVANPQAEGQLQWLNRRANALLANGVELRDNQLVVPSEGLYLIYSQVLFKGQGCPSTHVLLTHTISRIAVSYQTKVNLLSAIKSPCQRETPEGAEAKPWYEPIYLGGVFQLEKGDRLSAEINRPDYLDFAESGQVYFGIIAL
Settings: not given
For the molecule `CC(C)C[C@@H]1NC(=O)[C@H](Cc2ncc[nH]2)NC(=O)[C@H](C(C)C)NC(=O)[C@@H]2CCCN2C(=O)[C@H](C(C)C)NC(=O)[C@@H](CCCNC(=N)NCc2cccc(CNC(=N)N)c2)NC(=O)[C@H](CC(=O)O)NC(=O)[C@H](Cc2ccccn2)NC(=O)CN(C)C(=O)[C@H](Cc2ccc(-c3ccc(NC(=O)c4nn(CC(=O)O)c5ccccc45)cc3)cc2)NC(=O)[C@H](Cc2ccc(-c3ccc(C(=O)O)cc3)cc2)NC(=O)[C@H](CC2CCCCC2)NC(=O)CSC[C@@H](C(=O)NCC(N)=O)NC1=O` [Example 556] ({CH2CO}-[Cha][Bip(4'-COOH)][Bip(4'-NH)](Indazole3carbonyl(1-CH2COOH))[Sar][2Pal]D[dArg(Nω-CH2C6H4-3-CH2Gua)]VPV[Ala(imidazol-2-yl)]LCG-NH2; thioether N-13), the 50% inhibitory concentration (IC50) was less than 50 nM.

Molecule `CC(C)C[C@@H]1NC(=O)[C@H](Cc2ncc[nH]2)NC(=O)[C@H](C(C)C)NC(=O)[C@@H]2CCCN2C(=O)[C@H](C(C)C)NC(=O)[C@@H](CCCNC(=N)NCc2cccc(CNC(=N)N)c2)NC(=O)[C@H](CC(=O)O)NC(=O)[C@H](Cc2ccccn2)NC(=O)CN(C)C(=O)[C@H](Cc2ccc(-c3ccc(NC(=O)c4cn(CC(=O)O)c5ccccc45)cc3)cc2)NC(=O)[C@H](Cc2ccc(-c3ccc(C(=O)O)cc3)cc2)NC(=O)[C@H](CC2CCCCC2)NC(=O)CSC[C@@H](C(=O)NCC(N)=O)NC1=O` [Example 557] ({CH2CO}-[Cha][Bip(4'-COOH)][Bip(4'-NH)](Indole3carbonyl(1-CH2COOH))[Sar][2Pal]D[dArg(Nω-CH2C6H4-3-CH2Gua)]VPV[Ala(imidazol-2-yl)]LCG-NH2; thioether N-13) gave an IC50 of less than 50 nM.

On to `CC[C@H](C)[C@@H]1NC(=O)[C@@H](CCCNC(=N)NCc2cccc(O)c2)NC(=O)[C@H](CC(=O)O)NC(=O)[C@H](Cc2cnc[nH]2)NC(=O)CN(C)C(=O)[C@H](Cc2ccc(-c3ccc(NC(=O)c4nn(CC(=O)O)c5ccccc45)cc3)cc2)NC(=O)[C@H](Cc2ccc(-c3ccc(C(=O)O)cc3)cc2)NC(=O)[C@H](CC2CCCCC2)NC(=O)CSC[C@@H](C(=O)NCC(N)=O)NC(=O)[C@H](CC(C)C)NC(=O)[C@H](Cc2ncc[nH]2)NC(=O)[C@H](C(C)C)NC(=O)[C@@H]2Cc3ccccc3CN2C1=O` [Example 561] ({CH2CO}-[Cha][Bip(4'-COOH)][Bip(4'-NH)](Indazole3carbonyl(1-CH2COOH))[Sar]HD[dArg(ω-(3-HO-benzyl))]I[Tic]V[Ala(imidazol-2-yl)]LCG-NH2; thioether N-13), for which the half-maximal inhibitory concentration (IC50) is less than 50 nM.

Molecule `CC(C)C[C@@H]1NC(=O)[C@H](CCCNC(=N)N)NC(=O)[C@H](C(C)C)NC(=O)[C@@H]2CCCN2C(=O)[C@H](C(C)C)NC(=O)[C@@H](CCCNC(=N)NCc2cccc(O)c2)NC(=O)[C@H](CC(=O)O)NC(=O)[C@@H]2CCCN2C(=O)CN(C)C(=O)[C@H](Cc2ccc(-c3ccc(NC(=O)c4cn(CC(=O)O)c5ccccc45)cc3)cc2)NC(=O)[C@H](Cc2ccc(-c3ccccc3)cc2)NC(=O)[C@H](CN2CCOCC2)NC(=O)CSC[C@@H](C(=O)NCC(N)=O)NC1=O` [Example 565] ({CH2CO}-[Ala(morpholin-4-yl)][Bip][Bip(4'-NH)](Indole3carbonyl(1-CH2COOH))[Sar]PD[dArg(ω-(3-HO-benzyl))]VPVRLCG-NH2; thioether N-13) had an IC50 of less than 50 nM.

Staying with this assay, now noted: HEK-Blue-CD40L cells, NF-kB-driven secreted alkaline phosphatase reporter; TNFα 0.5 ng/ml; 18 h; read-out: TNF induced HEK-Blue assay IC50 value.
For `CC(C)C[C@@H]1NC(=O)[C@H](Cc2ncc[nH]2)NC(=O)[C@H](C(C)C)NC(=O)[C@@H]2CCCN2C(=O)[C@H](C(C)C)NC(=O)[C@@H](CCCNC(=N)NCc2cccc(CNC(=N)N)c2)NC(=O)[C@H](CC(=O)O)NC(=O)[C@H](Cc2ccccn2)NC(=O)CN(C)C(=O)[C@H](Cc2ccc(-c3ccc(NC(=O)c4cccc(CC(=O)O)c4)cc3)cc2)NC(=O)[C@H](Cc2ccc(-c3ccc(C(=O)O)cc3)cc2)NC(=O)[C@H](CC2CCCCC2)NC(=O)CSC[C@@H](C(=O)NCC(N)=O)NC1=O` [Example 558] ({CH2CO}-[Cha][Bip(4'-COOH)][Bip(4'-NHCO-C6H4-3-CH2COOH)][Sar][2Pal]D[dArg(Nω-CH2C6H4-3-CH2Gua)]VPV[Ala(imidazol-2-yl)]LCG-NH2; thioether N-13), the IC50 was less than 50 nM.

Regarding `CC(C)C[C@@H]1NC(=O)[C@H](Cc2ncc[nH]2)NC(=O)[C@H](C(C)C)NC(=O)[C@@H]2CCCN2C(=O)[C@H](C(C)C)NC(=O)[C@@H](CCCNC(=N)NCc2cccc(CNC(=N)N)c2)NC(=O)[C@H](CC(=O)O)NC(=O)[C@H](Cc2ccccn2)NC(=O)CN(C)C(=O)[C@H](Cc2ccc(-c3ccc(NC(=O)c4ccc(CC(=O)O)cc4)cc3)cc2)NC(=O)[C@H](Cc2ccc(-c3ccc(C(=O)O)cc3)cc2)NC(=O)[C@H](CC2CCCCC2)NC(=O)CSC[C@@H](C(=O)NCC(N)=O)NC1=O` [Example 559] ({CH2CO}-[Cha][Bip(4'-COOH)][Bip(4'-NHCO-C6H4-4-CH2COOH)][Sar][2Pal]D[dArg(Nω-CH2C6H4-3-CH2Gua)]VPV[Ala(imidazol-2-yl)]LCG-NH2; thioether N-13), the IC50 is less than 50 nM.

`CC(C)C[C@@H]1NC(=O)[C@H](Cc2ncc[nH]2)NC(=O)[C@H](C(C)C)NC(=O)[C@@H]2CCCN2C(=O)[C@H](C(C)C)NC(=O)[C@@H](CCCNC(=N)NCc2cccc(CNC(=N)N)c2)NC(=O)[C@H](CC(=O)O)NC(=O)[C@H](Cc2ccccn2)NC(=O)CN(C)C(=O)[C@H](Cc2ccc(-c3ccc(NC(=O)c4cccc(OCC(=O)O)c4)cc3)cc2)NC(=O)[C@H](Cc2ccc(-c3ccc(C(=O)O)cc3)cc2)NC(=O)[C@H](CC2CCCCC2)NC(=O)CSC[C@@H](C(=O)NCC(N)=O)NC1=O` [Example 560] ({CH2CO}-[Cha][Bip(4'-COOH)][Bip(4'-NH)](Benzoyl(3-OCH2COOH))[Sar][2Pal]D[dArg(Nω-CH2C6H4-3-CH2Gua)]VPV[Ala(imidazol-2-yl)]LCG-NH2; thioether N-13): the IC50 was less than 50 nM.

Consider `CC[C@H](C)[C@@H]1NC(=O)[C@@H](CCCNC(=N)NCc2cccc(O)c2)NC(=O)[C@H](CC(=O)O)NC(=O)[C@H](Cc2cnc[nH]2)NC(=O)CN(C)C(=O)[C@H](Cc2ccc(-c3ccc(NC(=O)c4cccc(CC(=O)O)c4)cc3)cc2)NC(=O)[C@H](Cc2ccc(-c3ccc(C(=O)O)cc3)cc2)NC(=O)[C@H](CC2CCCCC2)NC(=O)CSC[C@@H](C(=O)NCC(N)=O)NC(=O)[C@H](CC(C)C)NC(=O)[C@H](Cc2ncc[nH]2)NC(=O)[C@H](C(C)C)NC(=O)[C@@H]2Cc3ccccc3CN2C1=O` [Example 562] ({CH2CO}-[Cha][Bip(4'-COOH)][Bip(4'-NHCO-C6H4-3-CH2COOH)][Sar]HD[dArg(ω-(3-HO-benzyl))]I[Tic]V[Ala(imidazol-2-yl)]LCG-NH2; thioether N-13), for which the IC50 is 50 to 200 nM.

In the case of `CC[C@H](C)[C@@H]1NC(=O)[C@@H](CCCNC(=N)NCc2cccc(O)c2)NC(=O)[C@H](CC(=O)O)NC(=O)[C@H](Cc2cnc[nH]2)NC(=O)CN(C)C(=O)[C@H](Cc2ccc(-c3ccc(NC(=O)c4ccc(CC(=O)O)cc4)cc3)cc2)NC(=O)[C@H](Cc2ccc(-c3ccc(C(=O)O)cc3)cc2)NC(=O)[C@H](CC2CCCCC2)NC(=O)CSC[C@@H](C(=O)NCC(N)=O)NC(=O)[C@H](CC(C)C)NC(=O)[C@H](Cc2ncc[nH]2)NC(=O)[C@H](C(C)C)NC(=O)[C@@H]2Cc3ccccc3CN2C1=O` [Example 563] ({CH2CO}-[Cha][Bip(4'-COOH)][Bip(4'-NHCO-C6H4-4-CH2COOH)][Sar]HD[dArg(ω-(3-HO-benzyl))]I[Tic]V[Ala(imidazol-2-yl)]LCG-NH2; thioether N-13), the IC50 was less than 50 nM.

As to `CC[C@H](C)[C@@H]1NC(=O)[C@@H](CCCNC(=N)NCc2cccc(O)c2)NC(=O)[C@H](CC(=O)O)NC(=O)[C@H](Cc2cnc[nH]2)NC(=O)CN(C)C(=O)[C@H](Cc2ccc(-c3ccc(NC(=O)c4cccc(OCC(=O)O)c4)cc3)cc2)NC(=O)[C@H](Cc2ccc(-c3ccc(C(=O)O)cc3)cc2)NC(=O)[C@H](CC2CCCCC2)NC(=O)CSC[C@@H](C(=O)NCC(N)=O)NC(=O)[C@H](CC(C)C)NC(=O)[C@H](Cc2ncc[nH]2)NC(=O)[C@H](C(C)C)NC(=O)[C@@H]2Cc3ccccc3CN2C1=O` [Example 564] ({CH2CO}-[Cha][Bip(4'-COOH)][Bip(4'-NH)](Benzoyl(3-OCH2COOH))[Sar]HD[dArg(ω-(3-HO-benzyl))]I[Tic]V[Ala(imidazol-2-yl)]LCG-NH2; thioether N-13), the 50% inhibitory concentration (IC50) is less than 50 nM.

In the case of `CC(C)C[C@@H]1NC(=O)[C@H](CCCNC(=N)N)NC(=O)[C@H](C(C)C)NC(=O)[C@@H]2CCCN2C(=O)[C@H](C(C)C)NC(=O)[C@@H](CCCNC(=N)NCc2cccc(O)c2)NC(=O)[C@H](CC(=O)O)NC(=O)[C@@H]2CCCN2C(=O)CN(C)C(=O)[C@H](Cc2ccc(-c3ccc(NC(=O)c4cccc(CC(=O)O)c4)cc3)cc2)NC(=O)[C@H](Cc2ccc(-c3ccccc3)cc2)NC(=O)[C@H](CN2CCOCC2)NC(=O)CSC[C@@H](C(=O)NCC(N)=O)NC1=O` [Example 566] ({CH2CO}-[Ala(morpholin-4-yl)][Bip][Bip(4'-NHCO-C6H4-3-CH2COOH)][Sar]PD[dArg(ω-(3-HO-benzyl))]VPVRLCG-NH2; thioether N-13), the IC50 is less than 50 nM.

With `CC(C)C[C@@H]1NC(=O)[C@H](CCCNC(=N)N)NC(=O)[C@H](C(C)C)NC(=O)[C@@H]2CCCN2C(=O)[C@H](C(C)C)NC(=O)[C@@H](CCCNC(=N)NCc2cccc(O)c2)NC(=O)[C@H](CC(=O)O)NC(=O)[C@@H]2CCCN2C(=O)CN(C)C(=O)[C@H](Cc2ccc(-c3ccc(NC(=O)c4ccc(CC(=O)O)cc4)cc3)cc2)NC(=O)[C@H](Cc2ccc(-c3ccccc3)cc2)NC(=O)[C@H](CN2CCOCC2)NC(=O)CSC[C@@H](C(=O)NCC(N)=O)NC1=O` [Example 567] ({CH2CO}-[Ala(morpholin-4-yl)][Bip][Bip(4'-NHCO-C6H4-4-CH2COOH)][Sar]PD[dArg(ω-(3-HO-benzyl))]VPVRLCG-NH2; thioether N-13), the IC50 was less than 50 nM.

Turning to `CC(C)C[C@@H]1NC(=O)[C@H](CCCNC(=N)N)NC(=O)[C@H](C(C)C)NC(=O)[C@@H]2CCCN2C(=O)[C@H](C(C)C)NC(=O)[C@@H](CCCNC(=N)NCc2cccc(O)c2)NC(=O)[C@H](CC(=O)O)NC(=O)[C@@H]2CCCN2C(=O)CN(C)C(=O)[C@H](Cc2ccc(-c3ccc(NC(=O)c4cccc(OCC(=O)O)c4)cc3)cc2)NC(=O)[C@H](Cc2ccc(-c3ccccc3)cc2)NC(=O)[C@H](CN2CCOCC2)NC(=O)CSC[C@@H](C(=O)NCC(N)=O)NC1=O` [Example 568] ({CH2CO}-[Ala(morpholin-4-yl)][Bip][Bip(4'-NH)](Benzoyl(3-OCH2COOH))[Sar]PD[dArg(ω-(3-HO-benzyl))]VPVRLCG-NH2; thioether N-13), the IC50 is less than 50 nM.
